Data published in patent publication US7091202B2, “4-arylspirocycloalkyl-2-aminopyrimidine carboxamide KCNQ potassium channel modulators” (Bristol-Myers Squibb Company, priority 2004, dated 2006).

How the values were obtained:
[1] = target: T1, hQ23 (HEK-293 cell line stably transfected with one of the members of the KCNQ family) (Homo sapiens, UniProt O43525+O43526); test: Thallium flux assay for KCNQ channel blockers (FLIPR, BTC dye); assay type: cell-based
T1 construct: expressed in transfected cells; host or cells: HEK-293, stably transfected
T1 sequence (O43526 whole entry): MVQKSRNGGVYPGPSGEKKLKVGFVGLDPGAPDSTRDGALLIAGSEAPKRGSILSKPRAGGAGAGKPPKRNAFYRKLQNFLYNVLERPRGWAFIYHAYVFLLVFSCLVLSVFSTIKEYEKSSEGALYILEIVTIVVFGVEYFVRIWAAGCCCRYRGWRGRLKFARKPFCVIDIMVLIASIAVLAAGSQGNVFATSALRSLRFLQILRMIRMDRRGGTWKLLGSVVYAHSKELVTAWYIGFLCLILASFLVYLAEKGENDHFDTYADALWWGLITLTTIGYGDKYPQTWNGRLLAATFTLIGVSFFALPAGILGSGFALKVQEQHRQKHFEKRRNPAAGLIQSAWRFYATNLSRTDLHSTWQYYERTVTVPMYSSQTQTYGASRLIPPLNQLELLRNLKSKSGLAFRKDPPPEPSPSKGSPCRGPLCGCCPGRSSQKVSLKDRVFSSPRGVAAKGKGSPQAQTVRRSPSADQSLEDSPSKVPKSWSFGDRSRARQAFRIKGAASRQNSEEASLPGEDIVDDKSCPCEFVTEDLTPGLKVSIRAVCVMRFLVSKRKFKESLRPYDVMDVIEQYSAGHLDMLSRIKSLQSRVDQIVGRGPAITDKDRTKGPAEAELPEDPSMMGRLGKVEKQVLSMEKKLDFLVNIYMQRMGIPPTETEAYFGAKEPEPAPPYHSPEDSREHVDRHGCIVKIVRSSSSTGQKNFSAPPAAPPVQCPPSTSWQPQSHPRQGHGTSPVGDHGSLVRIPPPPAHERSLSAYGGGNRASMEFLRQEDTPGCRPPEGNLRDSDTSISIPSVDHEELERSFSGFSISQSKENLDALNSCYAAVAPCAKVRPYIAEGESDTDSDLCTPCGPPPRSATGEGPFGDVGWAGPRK
T1 sequence (O43525 whole entry): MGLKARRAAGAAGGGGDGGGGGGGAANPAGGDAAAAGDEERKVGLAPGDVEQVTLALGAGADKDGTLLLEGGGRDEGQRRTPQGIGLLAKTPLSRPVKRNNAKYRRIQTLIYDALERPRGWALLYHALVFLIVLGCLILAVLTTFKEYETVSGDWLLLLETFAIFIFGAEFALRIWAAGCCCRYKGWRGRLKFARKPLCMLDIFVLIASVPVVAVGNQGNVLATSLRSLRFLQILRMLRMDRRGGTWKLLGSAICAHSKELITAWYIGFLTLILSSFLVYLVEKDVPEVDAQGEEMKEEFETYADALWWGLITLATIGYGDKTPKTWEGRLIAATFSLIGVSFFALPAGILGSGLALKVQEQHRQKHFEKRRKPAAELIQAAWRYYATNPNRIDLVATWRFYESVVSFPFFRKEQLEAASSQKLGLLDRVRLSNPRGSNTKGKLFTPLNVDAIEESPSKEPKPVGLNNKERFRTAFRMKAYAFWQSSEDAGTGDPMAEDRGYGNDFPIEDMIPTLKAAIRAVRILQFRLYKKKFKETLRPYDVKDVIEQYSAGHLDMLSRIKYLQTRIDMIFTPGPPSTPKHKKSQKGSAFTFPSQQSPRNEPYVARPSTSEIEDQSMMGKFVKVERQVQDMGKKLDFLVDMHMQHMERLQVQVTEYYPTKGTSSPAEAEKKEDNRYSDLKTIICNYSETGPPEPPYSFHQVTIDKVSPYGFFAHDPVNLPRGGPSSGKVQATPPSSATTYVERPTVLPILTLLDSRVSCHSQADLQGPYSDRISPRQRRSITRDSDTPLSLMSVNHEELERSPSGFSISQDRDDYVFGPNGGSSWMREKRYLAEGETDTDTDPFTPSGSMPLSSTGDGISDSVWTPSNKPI
How it was run: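 FLIPR thallium flux readout (BTC dye, 2 μM AM ester) in stably transfected KCNQ HEK-293 cells, chloride-free HEPES buffer pH 7.3, Tl2SO4 stimulus. IC50s were fitted with a single-site logistic equation across 10 points at 1:3 dilutions, defined as 50% of positive-control block; minimal active concentration meant signal ≥4 SD over DMSO controls.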

mKCNQ2 = mKCNQ2 (Mus musculus, UniProt Q9Z351); test: KCNQ patch-clamp: two-electrode voltage clamp on Xenopus laevis oocytes injected with mKCNQ2 cRNA; assay type: cell-based; conditions: for Percent TEA blockage: percent inhibition relative to 5 mM TEA blockade at a membrane voltage of −40 mV, mKCNQ2 in oocytes
Sequence of mKCNQ2 (Q9Z351 whole entry): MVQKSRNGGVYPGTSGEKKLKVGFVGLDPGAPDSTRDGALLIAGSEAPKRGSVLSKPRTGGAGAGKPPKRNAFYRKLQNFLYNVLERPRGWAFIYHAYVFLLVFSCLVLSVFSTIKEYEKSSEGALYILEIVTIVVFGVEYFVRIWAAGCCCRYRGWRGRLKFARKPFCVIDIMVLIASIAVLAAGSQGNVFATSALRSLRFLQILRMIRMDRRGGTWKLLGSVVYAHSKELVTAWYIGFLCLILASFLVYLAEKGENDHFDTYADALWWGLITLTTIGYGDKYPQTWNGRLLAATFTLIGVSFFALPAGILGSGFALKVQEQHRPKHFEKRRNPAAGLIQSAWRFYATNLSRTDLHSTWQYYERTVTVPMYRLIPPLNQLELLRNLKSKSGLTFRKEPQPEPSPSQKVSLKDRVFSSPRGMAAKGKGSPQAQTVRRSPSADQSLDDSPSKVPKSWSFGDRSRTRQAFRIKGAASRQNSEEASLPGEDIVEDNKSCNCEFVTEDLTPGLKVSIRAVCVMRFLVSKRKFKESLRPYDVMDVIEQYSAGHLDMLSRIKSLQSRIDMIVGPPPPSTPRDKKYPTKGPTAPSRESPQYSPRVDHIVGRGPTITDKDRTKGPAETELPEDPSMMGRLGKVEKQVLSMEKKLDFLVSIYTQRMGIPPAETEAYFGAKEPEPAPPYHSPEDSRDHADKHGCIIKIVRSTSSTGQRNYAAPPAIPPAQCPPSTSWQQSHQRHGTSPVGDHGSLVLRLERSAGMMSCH
Experimental: KCNQ Patch-clamp. Frog oocytes were surgically harvested from mature Xenopus laevis that had been anesthetized with 0.15% 3-aminobenzoic acid ethyl ester (tricaine). Only late stage V and VI oocytes were selected for cRNA injection, and the overlying follicle cell layers were enzymatically removed. Each oocyte was injected with approximately 60 ng of the mKCNQ2 cRNA. Following injection, oocytes were maintained at 17° C. in ND96 medium consisting of (in mM): NaCl, 90; KCl, 1.0; CaCl2, 1.0; MgCl2, 1.0; HEPES, 5.0; (pH 7.5) and supplemented with heat-inactivated horse serum (5%) and penicillin/streptomycin (5%).
Two-electrode voltage clamp techniques were used to record membrane currents; recording commenced 3–7 days following cRNA injection (Gribkoff, V. K., et al., Mol. Pharmacol. 1996, 50(1), 206–217). For recording and compound application, oocytes were placed in a recording chamber and incubated in Modified Barth's Solution (MBS) consisting of (in mM): NaCl, 88; NaHCO3, 2.4; KCI, 1.0; HEPES, 10; MgSO4, 0.82; Ca(NO3)2, 0.33; CaCl2, 0.41; (pH 7.5). Voltage-clamp protocols consisted of a series of 4 second duration depolarizing voltage steps from a holding potential of −90 mV to a maximal potential of +40 mV in 10 mV intervals. A family of outward currents was generated under control conditions for comparison with currents elicited in the presence of an experimental compound. Control or drug solutions were continually introduced into the recording chamber using a gravity-flow system with an in-line electronic valve array. A minimum of 5 oocytes was used for each drug concentration; drug concentrations ranged from 0.001 μM to 10 μM. During a single experiment, an oocyte was exposed to as many as three drug concentrations sequentially administered for 5 minutes each. All experiments ended with a 5 minute application of TEA (5 mM), a non-selective, but effective blocker of KCNQ channels. Typically, 5 mM TEA produced a maximal blockade of outward current when measured at the −40 mV membrane voltage (94.6+/−0.5% inhibition, n=112). In this manner, all drug effects could be presented as a percentage of TEA blockade, controlling for the variable levels of channel expression from oocyte to oocyte. Table 1 discloses data for representative examples. Data are expressed as percent inhibition relative to TEA blockade at a membrane voltage of −40 mV: A>50% TEA blockage at 100 nM, B>50% TEA blockage at 1 μM, C<50% TEA blockage at 1.0 μM.

[2] = hQ23 cells, thallium flux assay

SMILES | EC50 ([1]; hQ23 cells, thallium flux) | Percent TEA blockage (mKCNQ2) | other results
CC1CCN(c2ncc(C(=O)NCc3ccc(Cl)cc3Cl)c(C3(c4ccc(Cl)cc4)CCCC3)n2)CC1 [Example 181, 5-pyrimidinecarboxamide, 4-[1-(4-chlorophenyl)cyclopentyl]-N-[(2,4-dichlorophenyl)methyl]-2-(4-methyl-1-piperidinyl)-] | 10 nM | A (A > 50% TEA blockage at 100 nM) | 
CC1CCN(c2ncc(C(=O)NCc3ccc(C(F)(F)F)cc3)c(C3(c4ccccc4)CCCC3)n2)CC1 [Example 138, 5-pyrimidinecarboxamide, 2-(4-methyl-1-piperidinyl)-4-(1-phenylcyclopentyl)-N-[[4-(trifluoromethyl)phenyl]methyl]-] | 10 nM | B (B > 50% TEA blockage at 1 μM) | 
O=C(NCc1ccc2c(c1)OCO2)c1cnc(N2CCCC2)nc1C1(c2ccccc2)CCCCC1 [Example 299, N-(1,3-benzodioxol-5-ylmethyl)-4-[1-phenylcyclohexyl]-2-(1-pyrrolidinyl)-5-pyrimidinecarboxamide] |  | B (B > 50% TEA blockage at 1 μM) | 
CC1CCN(c2ncc(C(=O)NCc3ccc(Cl)cc3Cl)c(C3(c4ccc(F)cc4)CCCC3)n2)CC1 [Example 263, 5-pyrimidinecarboxamide, N-[(2,4-dichlorophenyl)methyl]-4-[1-(4-fluorophenyl)cyclopentyl]-2-(4-methyl-1-piperidinyl)-] |  | A (A > 50% TEA blockage at 100 nM) | EC50 [1, 2]: 17 nM
CC[N+](CC)(CC)CC [TEA, reference compound] |  |  | maximal blockade of outward current (% inhibition) (mKCNQ2; 5 mM TEA, measured at −40 mV membrane voltage, n=112): 94.6+/−0.5%
CC1CCN(c2ncc(C(=O)NC(C)c3cccnc3)c(C3(c4ccccc4)CCCC3)n2)CC1 (centres unmarked) [Example 16, 2-(4-Methyl-piperidin-1-yl)-4-(1-phenyl-cyclopentyl)-pyrimidine-5-carboxylic acid (1-pyridin-3-yl-ethyl)-amide] |  | A (A > 50% TEA blockage at 100 nM) | 
CC1CCC(Nc2ncc(C(=O)N[C@H](C)c3cccc4ccccc34)c(C3(c4ccccc4)CC3)n2)CC1 (stereo partly drawn) [Example 33, 5-pyrimidinecarboxamide, 2-[(4-methylcyclohexyl)amino]-N-[(1R)-1-(1-naphthalenyl)ethyl]-4-(1-phenylcyclopropyl)-] |  |  | EC50 ([1]; Table 2, thallium flux, HEK-293): 293 nM
CC1CCN(c2ncc(C(=O)NCc3ccc(Cl)cc3Cl)c(C3(c4ccc(Cl)cc4)CCC3)n2)CC1 [Example 64, 5-pyrimidinecarboxamide, 4-[1-(4-chlorophenyl)cyclobutyl]-N-[(2,4-dichlorophenyl)methyl]-2-(4-methyl-1-piperidinyl)-] |  |  | EC50 ([1]; Table 3, thallium flux, HEK-293): 34 nM
O=C(NCc1cc(F)cc(C(F)(F)F)c1)c1cnc(N2CCCC2)nc1C1(c2ccccc2)CCCC1 [Example 124, 5-pyrimidinecarboxamide, N-[[3-fluoro-5-(trifluoromethyl)phenyl]methyl]-4-(1-phenylcyclopentyl)-2-(1-pyrrolidinyl)-] | 240 nM |  | 
CCC(C)Nc1ncc(C(=O)NC(C)c2ccc(F)cc2)c(C2(c3ccc(Cl)cc3)CCCC2)n1 (centres unmarked) [Example 200, 5-pyrimidinecarboxamide, 4-[1-(4-chlorophenyl)cyclopentyl]-N-[1-(4-fluorophenyl)ethyl]-2-[(1-methylpropyl)amino]-] | 911 nM |  | 
CC1CCC(Nc2ncc(C(=O)NCc3ccc(Cl)cc3Cl)c(C3(c4ccc(F)cc4)CCCC3)n2)CC1 (centres unmarked) [Example 260, 5-pyrimidinecarboxamide, N-[(2,4-dichlorophenyl)methyl]-4-[1-(4-fluorophenyl)cyclopentyl]-2-[(4-methylcyclohexyl)amino]-] |  |  | EC50 [1, 2]: 10 nM
CC1CCC(Nc2ncc(C(=O)N(C)CCc3ccccc3)c(C3(c4ccc(F)cc4)CCCC3)n2)CC1 (centres unmarked) [Example 219, 5-pyrimidinecarboxamide, 4-[1-(4-fluorophenyl)cyclopentyl]-N-methyl-2-[(4-methylcyclohexyl)amino]-N-(2-phenylethyl)-] | 334 nM |  | 
O=C(NCc1ccc(Cl)cc1Cl)c1cnc(NC2CC2)nc1C1(c2ccc(F)cc2)CCCC1 [Example 259, 5-pyrimidinecarboxamide, 2-(cyclopropylamino)-N-[(2,4-dichlorophenyl)methyl]-4-[1-(4-fluorophenyl)cyclopentyl]-] |  |  | EC50 [1, 2]: 869 nM
CC1CCN(c2ncc(C(=O)N(C)Cc3ccccc3)c(C3(c4ccccc4)CCCC3)n2)CC1 [Example 70, 5-pyrimidinecarboxamide, N-methyl-2-(4-methyl-1-piperidinyl)-4-(1-phenylcyclopentyl)-N-(phenylmethyl)-] | 270 nM |  | 
